From PubChem BioAssay AID1204 (EPA DSSTox, 2008)
Records with an inconclusive call do not appear. The source made the active and inactive calls.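 How the source made its calls: active means relative estrogen receptor binding affinity above 1E-5, where estradiol scores 100; inconclusive means weak binder, under half inhibition at top dose, or affinity below 1E-5; inactive means no binding seen, affinity zero.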

Tested on: estrogen receptor (rat uterine cytosol)
Test: DSSTox (NCTRER) National Center for Toxicological Research Estrogen Receptor Binding Database;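 on relative binding affinity: ratio of estradiol IC50 over compound IC50 times 100 so estradiol equals 100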
Conditions: rat uterine cytosol ER competitive binding, RBA; for relative binding affinity: active compounds read high
From the text: Researchers within FDA's National Center for Toxicological Research (NCTR) generated a database of experimental estrogen receptor binding results for the express purpose of developing improved QSAR models to predict ER binding affinities.The NCTR ER database is a structurally diverse set of natural, synthetic, and environmental estrogens covering most known estrogenic classes and spanning a wide range of biological activity. It represents the largest published ER binding database of same-assay results generated in a single laboratory. […] Information on the percent purity and purchasing source for all chemicals are not included in the DSSTox SDF, but can be obtained from the original NCTR ER Source database and Main Citations listed below. The main citation (Fang et al., 2001) surveys the NCTR ER database from a chemical class based, structure-activity relationship (SAR) perspective. Qualitative SAR characteristics of the NCTR ER database are discussed and a set of general hierarchical rules for identifying potential estrogens are presented. The DSSTox NCTRER SDF augments the original NCTR ER database with chemical class and SAR information abstracted from Fang et al. (2001). The DSSTox SDF file supplements the measured ER relative binding affinity for each chemical (ER_RBA) with chemical class assignment to one of 6 major estrogenic classes further divided into 20 subclasses (ChemClass_ERB), along with a qualitative activity measure, ActivityCategory_ER_RBA. A brief narrative SAR rationale pertaining to ER RBA patterns observed by Fang et al. (2001) for each of the 20 subclasses within the database are provided in the field, ActivityCategory_Rationale_ChemClass_ERB. The original NCTR ER database, from which the expanded DSSTox NCTRER was formed, is contained within a larger Endocrine Disruptor Knowledge Base (EDKB) accessible from the FDA Source Website. That website provides online access to a relational database comprised of in vitro and in vivo experimental data for about 2000 natural and synthetic compounds, much of this extracted from the literature and representing testing in many laboratories. Data are included for biological assays that measure estrogenic and androgenic activity. Estrogenic endpoints include in vitro assays for estrogen receptor competitive binding affinity, cell proliferation, and reporter-gene assays, and in vivo assays for uterotrophic activity (i.e., uterine weight gain and vaginal cornification). The database also contains a bibliography of over 1200 citations, many of which include abstracts.
Estrogen receptor relative binding affinity is determined using a competitive receptor binding assay as described in NCTRER Ref (Blair et al., 2000). Briefly, a chemical competes with radiolabeled E2 (i.e., estradiol) for binding to the ER in rat uterine cytosol and the concentration of chemical that causes 50% inhibition of E2 binding (i.e., IC50) is measured. The ER_RBA is calculated by dividing the IC50 of E2 (9X10-10M) by the IC50 of the competitor and multiplying by 100 (E2 RBA = 100). The validated assay tested 1nM E2 with concentrations of competitor ranging from 1nM to 1mM. The larger the ER_RBA values, the greater the binding affinity; ER_RBA > 100 means compound has greater binding affinity than natural ER ligand, E2. […] Activity Score is mapping of LOG_ER_RBA values (ER-RBA>1E-5), spanning activity range [MIN, MAX] onto Integer 20-100 Activity range, where 100 is highest potency and 20 is lowest active potency. If Activity Outcome is "active": Activity Score = 80 * INTEGER[(LOG_ER_RBA - MIN)/(MAX […] MIN)]. If Activity Outcome is "inconclusive" (i.e., slight binder): Activity Score = 5.

[1] = ChemClass_ERB: Phytoestrogens Mycoestrogens
[2] = ChemClass_ERB: Diphenylmethanes DDTs
[3] = ChemClass_ERB: Phytoestrogens Isoflavones
[4] = ChemClass_ERB: Diphenylmethanes Diphenolalkanes
[5] = ChemClass_ERB: Steroids Without aromatic A ring
[6] = ChemClass_ERB: DES Hexestrol derivatives
[7] = ChemClass_ERB: Phytoestrogens Flavanones

Compound: C[C@H]1CCC[C@H](O)CCCCCc2cc(O)cc(O)c2C(=O)O1
- relative binding affinity [1]: 30.2%

Compound: CC[C@@H](c1ccc2cc(O)ccc2c1)C(C)(C)C(=O)O
- relative binding affinity (ChemClass_ERB: Misc): 0.955%

Compound: OCCCCCCCCO
- outcome (ChemClass_ERB: Misc): inactive

Compound: Clc1ccc(-c2ccccc2Cl)cc1
- relative binding affinity (ChemClass_ERB: Biphenyls PCBs): 0.00024%

Compound: Oc1ccccc1
- outcome (ChemClass_ERB: Phenols Alkyl): inactive

Compound: ClC1C(Cl)C(Cl)C(Cl)C(Cl)C1Cl (stereo not given)
- outcome (ChemClass_ERB: Misc): inactive

Compound: Nc1ccc(Cc2ccc(N)cc2)cc1
- outcome (ChemClass_ERB: Misc): inactive

Compound: COc1ccc(C(c2ccc(O)cc2)C(Cl)(Cl)Cl)cc1 (stereo not given)
- relative binding affinity [2]: 0.129%

Compound: COc1cc(C=O)ccc1O
- outcome (ChemClass_ERB: Phenols Alkyloxy): inactive

Compound: O=C(/C=C/c1ccccc1)c1ccccc1
- relative binding affinity (ChemClass_ERB: Phytoestrogens Chalconoids): 0.00151%

Compound: CC/C(=C(/CC)c1ccc(OC)cc1)c1ccc(OC)cc1
- relative binding affinity (ChemClass_ERB: DES Derivatives): 0.056%

Compound: COc1nc(NC(C)C)nc(NC(C)C)n1
- outcome (ChemClass_ERB: Misc): inactive

Compound: COc1ccc(-c2coc3cc(O)cc(O)c3c2=O)cc1
- relative binding affinity [3]: 0.0043%

Compound: O=S1(=O)OC(c2ccc(O)cc2)(c2ccc(O)cc2)c2ccccc21
- relative binding affinity [4]: 0.00056%

Compound: COC(=O)c1ccc(O)cc1
- relative binding affinity (ChemClass_ERB: Phenols Parabens): 0.00036%

Compound: Oc1ccccc1Cc1ccccc1O
- outcome [4]: inactive

Compound: O=C(O)COc1cc(Cl)c(Cl)cc1Cl
- outcome (ChemClass_ERB: Misc): inactive

Compound: CCc1cccc(CC)c1N(COC)C(=O)CCl
- outcome (ChemClass_ERB: Misc): inactive

Compound: C[Si](C)(Cc1ccccc1)O[Si](C)(C)Cc1ccccc1
- outcome (ChemClass_ERB: Misc): inactive

Compound: O=c1c(-c2ccc(O)cc2)coc2cc(O)c(O)cc12
- outcome [3]: inactive

Compound: C[C@]12CC[C@H]3[C@@H](CCC4=CC(=O)CC[C@@]43C)[C@@H]1CC[C@@H]2O
- outcome [5]: inactive

Compound: CCCCC(CC)COC(=O)CCCCC(=O)OCC(CC)CCCC (stereo not given)
- outcome (ChemClass_ERB: Misc): inactive

Compound: C[C@]12CCC(=O)C=C1CC[C@@H]1[C@@H]2[C@@H](O)C[C@]2(C=O)[C@@H](C(=O)CO)CC[C@@H]12
- outcome [5]: inactive

Compound: CC[C@H](c1ccc(O)cc1)[C@@H](CC)c1ccc(O)cc1
- relative binding affinity [6]: 301%

Compound: CCNc1nc(Cl)nc(NCC)n1
- outcome (ChemClass_ERB: Misc): inactive

Compound: CC/C(=C(/CC)c1ccc(OC)cc1)c1ccc(O)cc1
- relative binding affinity (ChemClass_ERB: DES Derivatives): 20.4%

Compound: CC(CCC(=O)O)(c1ccc(O)cc1)c1ccc(O)cc1
- relative binding affinity [4]: 0.00074%

Compound: ClC1=C(Cl)C2(Cl)C3C(Cl)C=CC3C1(Cl)C2(Cl)Cl (stereo not given)
- outcome (ChemClass_ERB: Misc): inactive

Compound: CCC(C)(C)c1ccc(O)cc1
- relative binding affinity (ChemClass_ERB: Phenols Alkyl): 0.00054%

Compound: Oc1ccc(-c2ccc(Cl)cc2)cc1
- relative binding affinity (ChemClass_ERB: Biphenyls PCBs): 0.0066%

Compound: COc1ccc([C@@H]2CC(=O)c3c(O)cc(O)cc3O2)cc1O
- outcome [7]: inactive

Compound: CCC(C)(c1ccc(O)cc1)c1ccc(O)cc1
- relative binding affinity [4]: 0.0851%

Compound: O=Cc1ccco1
- outcome (ChemClass_ERB: Misc): inactive

Compound: Oc1ccc(C(c2ccc(O)cc2)C(Cl)(Cl)Cl)cc1
- relative binding affinity [2]: 0.251%

Compound: CCCCCCCCCCCCc1ccc(O)cc1
- relative binding affinity (ChemClass_ERB: Phenols Alkyl): 0.0186%

Compound: CC(C)(c1ccc(O)cc1)c1ccc(O)cc1
- relative binding affinity [4]: 0.0078%

Compound: Clc1ccc(-c2ccc(Cl)cc2)cc1
- outcome (ChemClass_ERB: Biphenyls PCBs): inactive

Compound: Clc1ccc(-c2ccc(Cl)cc2Cl)c(Cl)c1
- outcome (ChemClass_ERB: Biphenyls PCBs): inactive

Compound: CC(=O)[C@H]1CC[C@H]2[C@@H]3CCC4=CC(=O)CC[C@]4(C)[C@H]3CC[C@]12C
- outcome [5]: inactive

Compound: CCC(c1ccc(C)cc1)C(CC)c1ccc(O)cc1 (stereo not given)
- relative binding affinity [6]: 3.98%

Compound: C[C@H]1CCC[C@H](O)CCC/C=C/c2cc(O)cc(O)c2C(=O)O1
- relative binding affinity [1]: 42.7%

Compound: CC12CCC(CC1)C(C)(C)O2
- outcome (ChemClass_ERB: Misc): inactive

Compound: NCCc1ccc(O)c(O)c1
- outcome (ChemClass_ERB: Misc): inactive

Compound: C[C@]12CC[C@@H]3c4cc(O)c(O)cc4CC[C@H]3[C@@H]1CC[C@@H]2O
- relative binding affinity (ChemClass_ERB: Steroids With aromatic A ring): 29.5%

Compound: O=C1c2c(O)cc(O)cc2O[C@H](c2ccc(O)c(O)c2)[C@H]1O
- outcome [7]: inactive

Compound: Oc1ccc(Cl)cc1Cc1cc(Cl)ccc1O
- relative binding affinity [4]: 0.0035%

Compound: O=c1c(-c2ccc(O)cc2)coc2cc(O)ccc12
- relative binding affinity [3]: 0.022%

Compound: Nc1ccc(Oc2ccc(N)cc2)cc1
- outcome (ChemClass_ERB: Misc): inactive

Compound: Oc1ccc(-c2cc(Cl)c(Cl)c(Cl)c2Cl)cc1
- relative binding affinity (ChemClass_ERB: Biphenyls PCBs): 0.23%
